Assay [1] concerns the target T1, ATP-binding cassette sub-family C member 4 (Homo sapiens, UniProt O15439).
T1 sequence (O15439 whole entry): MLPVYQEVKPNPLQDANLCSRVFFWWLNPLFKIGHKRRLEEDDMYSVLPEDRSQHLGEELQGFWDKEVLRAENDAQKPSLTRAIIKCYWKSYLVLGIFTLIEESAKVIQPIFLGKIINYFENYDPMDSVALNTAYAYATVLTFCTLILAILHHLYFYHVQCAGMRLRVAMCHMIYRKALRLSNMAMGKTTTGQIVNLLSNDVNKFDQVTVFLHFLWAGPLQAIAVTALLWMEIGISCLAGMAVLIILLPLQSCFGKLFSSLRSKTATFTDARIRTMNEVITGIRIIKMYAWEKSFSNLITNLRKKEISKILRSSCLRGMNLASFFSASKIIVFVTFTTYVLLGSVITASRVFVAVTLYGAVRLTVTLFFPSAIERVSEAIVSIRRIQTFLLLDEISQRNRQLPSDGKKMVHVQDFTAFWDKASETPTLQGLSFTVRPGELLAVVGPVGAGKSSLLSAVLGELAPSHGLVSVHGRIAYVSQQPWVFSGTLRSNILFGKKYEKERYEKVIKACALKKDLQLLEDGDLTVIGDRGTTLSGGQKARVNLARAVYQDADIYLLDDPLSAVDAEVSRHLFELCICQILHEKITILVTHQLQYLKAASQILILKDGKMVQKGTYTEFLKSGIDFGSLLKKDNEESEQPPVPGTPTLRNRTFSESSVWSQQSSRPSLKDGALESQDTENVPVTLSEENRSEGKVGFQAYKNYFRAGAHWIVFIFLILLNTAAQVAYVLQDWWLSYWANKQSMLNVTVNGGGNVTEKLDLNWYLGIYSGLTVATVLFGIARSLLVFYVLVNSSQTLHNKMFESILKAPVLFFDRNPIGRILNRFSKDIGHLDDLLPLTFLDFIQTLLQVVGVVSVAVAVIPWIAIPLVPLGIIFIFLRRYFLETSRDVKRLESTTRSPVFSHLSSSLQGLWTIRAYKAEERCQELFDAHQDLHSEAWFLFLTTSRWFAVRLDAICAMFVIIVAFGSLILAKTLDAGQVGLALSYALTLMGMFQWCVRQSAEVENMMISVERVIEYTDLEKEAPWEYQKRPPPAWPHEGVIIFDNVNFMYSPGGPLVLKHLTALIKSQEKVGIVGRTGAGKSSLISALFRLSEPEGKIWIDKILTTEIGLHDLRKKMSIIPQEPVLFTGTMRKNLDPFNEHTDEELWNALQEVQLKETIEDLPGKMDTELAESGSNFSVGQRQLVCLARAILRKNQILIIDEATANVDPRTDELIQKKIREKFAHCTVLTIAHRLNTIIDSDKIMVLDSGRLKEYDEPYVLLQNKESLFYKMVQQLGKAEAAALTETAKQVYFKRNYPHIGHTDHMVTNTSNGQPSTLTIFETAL
In words: Inhibition of human MRP4 overexpressed in Sf9 cell membrane vesicles assessed as uptake of [3H]-estradiol-17beta-D-glucuronide in presence of ATP and GSH measured after 20 mins by membrane vesicle transport assay. Type of assay: ADME, cell-based.

In assay [2] the target is ATP-binding cassette sub-family C member 2 (Homo sapiens, UniProt Q92887). The assay is described as follows: Inhibition of human MRP2 overexpressed in Sf9 cell membrane vesicles assessed as uptake of [3H]-estradiol-17beta-D-glucuronide in presence of ATP and GSH measured after 20 mins by membrane vesicle transport assay.
Chain of ATP-binding cassette sub-family C member 2 (Q92887 whole entry): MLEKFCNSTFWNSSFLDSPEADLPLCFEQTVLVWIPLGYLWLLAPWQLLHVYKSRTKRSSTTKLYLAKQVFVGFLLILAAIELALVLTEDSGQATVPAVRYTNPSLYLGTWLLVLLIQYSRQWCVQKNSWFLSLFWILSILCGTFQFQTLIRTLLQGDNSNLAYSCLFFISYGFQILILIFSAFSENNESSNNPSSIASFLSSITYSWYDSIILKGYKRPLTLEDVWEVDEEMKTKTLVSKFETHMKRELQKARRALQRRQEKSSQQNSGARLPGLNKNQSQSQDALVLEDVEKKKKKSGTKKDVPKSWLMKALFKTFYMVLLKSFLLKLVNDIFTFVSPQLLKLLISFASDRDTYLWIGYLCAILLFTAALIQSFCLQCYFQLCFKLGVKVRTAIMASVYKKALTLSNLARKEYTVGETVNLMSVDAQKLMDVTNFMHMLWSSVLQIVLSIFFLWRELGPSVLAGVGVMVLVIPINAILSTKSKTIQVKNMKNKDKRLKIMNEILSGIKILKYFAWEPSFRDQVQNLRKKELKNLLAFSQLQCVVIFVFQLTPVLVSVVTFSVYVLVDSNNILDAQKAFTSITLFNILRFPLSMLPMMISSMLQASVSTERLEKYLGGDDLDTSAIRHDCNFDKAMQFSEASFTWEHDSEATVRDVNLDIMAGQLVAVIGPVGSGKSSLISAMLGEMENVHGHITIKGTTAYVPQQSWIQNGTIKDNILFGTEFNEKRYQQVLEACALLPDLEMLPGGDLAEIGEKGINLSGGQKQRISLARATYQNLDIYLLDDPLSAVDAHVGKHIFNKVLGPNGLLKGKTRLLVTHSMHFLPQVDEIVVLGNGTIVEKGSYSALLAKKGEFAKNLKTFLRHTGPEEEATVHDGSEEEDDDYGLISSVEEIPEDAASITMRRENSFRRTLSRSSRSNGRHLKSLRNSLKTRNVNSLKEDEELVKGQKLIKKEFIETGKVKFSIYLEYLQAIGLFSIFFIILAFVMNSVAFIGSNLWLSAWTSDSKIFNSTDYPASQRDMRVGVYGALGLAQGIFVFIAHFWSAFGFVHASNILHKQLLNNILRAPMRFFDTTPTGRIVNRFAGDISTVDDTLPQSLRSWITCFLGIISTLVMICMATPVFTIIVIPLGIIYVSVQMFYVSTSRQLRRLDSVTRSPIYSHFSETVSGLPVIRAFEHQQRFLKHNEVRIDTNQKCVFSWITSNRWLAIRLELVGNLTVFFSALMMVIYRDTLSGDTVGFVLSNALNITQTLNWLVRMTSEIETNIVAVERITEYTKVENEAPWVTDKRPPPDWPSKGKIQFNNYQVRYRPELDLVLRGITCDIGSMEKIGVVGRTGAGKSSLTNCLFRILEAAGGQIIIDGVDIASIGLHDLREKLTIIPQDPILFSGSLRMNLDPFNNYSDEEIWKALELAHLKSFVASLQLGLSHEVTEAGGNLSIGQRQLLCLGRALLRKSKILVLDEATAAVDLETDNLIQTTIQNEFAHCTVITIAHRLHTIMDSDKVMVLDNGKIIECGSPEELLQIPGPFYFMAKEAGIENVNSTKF
A further assay has as its target Bile salt export pump (Homo sapiens, UniProt O95342). In words: Inhibition of human BSEP overexpressed in Sf9 cell membrane vesicles assessed as uptake of [3H]-taurocholate in presence of ATP measured after 15 to 20 mins by membrane vesicle transport assay. Type of assay: ADME, cell-based.
The target of assay [3] is ATP-binding cassette sub-family C member 3 (Homo sapiens, UniProt O15438). The assay is described as follows: Inhibition of human MRP3 overexpressed in Sf9 insect cell membrane vesicles assessed as uptake of [3H]-estradiol-17beta-D-glucuronide in presence of ATP and GSH measured after 10 mins by membrane vesicle transport assay. Type of assay: ADME, cell-based.
Chain of ATP-binding cassette sub-family C member 3 (O15438 whole entry): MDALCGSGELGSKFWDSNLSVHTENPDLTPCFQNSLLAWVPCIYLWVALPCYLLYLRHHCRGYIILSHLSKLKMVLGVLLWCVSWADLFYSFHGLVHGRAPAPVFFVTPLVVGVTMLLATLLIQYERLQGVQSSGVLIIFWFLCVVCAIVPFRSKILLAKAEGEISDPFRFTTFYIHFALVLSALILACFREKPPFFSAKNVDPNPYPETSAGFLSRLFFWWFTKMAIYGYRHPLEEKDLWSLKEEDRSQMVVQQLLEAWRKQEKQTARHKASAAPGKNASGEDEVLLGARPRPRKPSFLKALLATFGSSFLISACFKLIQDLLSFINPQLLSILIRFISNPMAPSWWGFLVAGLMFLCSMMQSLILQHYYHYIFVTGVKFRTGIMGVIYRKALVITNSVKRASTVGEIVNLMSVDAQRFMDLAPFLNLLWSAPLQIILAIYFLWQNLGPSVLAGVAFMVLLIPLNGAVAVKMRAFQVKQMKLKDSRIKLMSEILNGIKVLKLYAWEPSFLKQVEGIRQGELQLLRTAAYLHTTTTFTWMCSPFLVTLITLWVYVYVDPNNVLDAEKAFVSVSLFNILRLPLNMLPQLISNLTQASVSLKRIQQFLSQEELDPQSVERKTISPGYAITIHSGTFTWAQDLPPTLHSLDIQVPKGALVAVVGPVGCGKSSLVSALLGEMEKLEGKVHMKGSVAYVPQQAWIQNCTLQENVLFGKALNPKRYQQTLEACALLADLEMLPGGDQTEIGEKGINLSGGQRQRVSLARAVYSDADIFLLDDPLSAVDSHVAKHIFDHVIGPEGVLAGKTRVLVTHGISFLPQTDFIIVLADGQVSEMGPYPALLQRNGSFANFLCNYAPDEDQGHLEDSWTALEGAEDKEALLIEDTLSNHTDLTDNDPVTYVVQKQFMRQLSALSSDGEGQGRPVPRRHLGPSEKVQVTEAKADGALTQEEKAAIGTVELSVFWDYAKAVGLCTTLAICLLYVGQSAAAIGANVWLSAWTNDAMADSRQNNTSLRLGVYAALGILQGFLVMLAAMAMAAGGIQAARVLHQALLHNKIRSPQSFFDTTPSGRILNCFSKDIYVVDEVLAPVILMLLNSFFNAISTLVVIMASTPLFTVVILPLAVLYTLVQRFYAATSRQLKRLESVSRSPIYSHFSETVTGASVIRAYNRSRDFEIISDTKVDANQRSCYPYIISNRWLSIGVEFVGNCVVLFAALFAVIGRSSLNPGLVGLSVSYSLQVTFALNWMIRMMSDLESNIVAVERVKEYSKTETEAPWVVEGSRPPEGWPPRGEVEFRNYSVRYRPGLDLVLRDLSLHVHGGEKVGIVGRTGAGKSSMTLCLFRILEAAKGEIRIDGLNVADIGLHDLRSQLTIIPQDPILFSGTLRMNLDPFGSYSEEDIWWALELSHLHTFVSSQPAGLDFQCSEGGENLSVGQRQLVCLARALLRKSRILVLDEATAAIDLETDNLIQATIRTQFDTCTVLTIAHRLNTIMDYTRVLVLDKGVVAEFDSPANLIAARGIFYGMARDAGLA

Data on 29 compounds can be found in ChEMBL document CHEMBL4028801, “A multifactorial approach to hepatobiliary transporter assessment enables improved therapeutic compound development” (Toxicol Sci, 2013).

Where a name gives a salt, the structure may show the parent alone. Positions of bridges follow the written chain, without caps; N, C: chain ends. Residues, ends and D or L forms follow the SMILES beside them.

Chain of Bile salt export pump (O95342 whole entry): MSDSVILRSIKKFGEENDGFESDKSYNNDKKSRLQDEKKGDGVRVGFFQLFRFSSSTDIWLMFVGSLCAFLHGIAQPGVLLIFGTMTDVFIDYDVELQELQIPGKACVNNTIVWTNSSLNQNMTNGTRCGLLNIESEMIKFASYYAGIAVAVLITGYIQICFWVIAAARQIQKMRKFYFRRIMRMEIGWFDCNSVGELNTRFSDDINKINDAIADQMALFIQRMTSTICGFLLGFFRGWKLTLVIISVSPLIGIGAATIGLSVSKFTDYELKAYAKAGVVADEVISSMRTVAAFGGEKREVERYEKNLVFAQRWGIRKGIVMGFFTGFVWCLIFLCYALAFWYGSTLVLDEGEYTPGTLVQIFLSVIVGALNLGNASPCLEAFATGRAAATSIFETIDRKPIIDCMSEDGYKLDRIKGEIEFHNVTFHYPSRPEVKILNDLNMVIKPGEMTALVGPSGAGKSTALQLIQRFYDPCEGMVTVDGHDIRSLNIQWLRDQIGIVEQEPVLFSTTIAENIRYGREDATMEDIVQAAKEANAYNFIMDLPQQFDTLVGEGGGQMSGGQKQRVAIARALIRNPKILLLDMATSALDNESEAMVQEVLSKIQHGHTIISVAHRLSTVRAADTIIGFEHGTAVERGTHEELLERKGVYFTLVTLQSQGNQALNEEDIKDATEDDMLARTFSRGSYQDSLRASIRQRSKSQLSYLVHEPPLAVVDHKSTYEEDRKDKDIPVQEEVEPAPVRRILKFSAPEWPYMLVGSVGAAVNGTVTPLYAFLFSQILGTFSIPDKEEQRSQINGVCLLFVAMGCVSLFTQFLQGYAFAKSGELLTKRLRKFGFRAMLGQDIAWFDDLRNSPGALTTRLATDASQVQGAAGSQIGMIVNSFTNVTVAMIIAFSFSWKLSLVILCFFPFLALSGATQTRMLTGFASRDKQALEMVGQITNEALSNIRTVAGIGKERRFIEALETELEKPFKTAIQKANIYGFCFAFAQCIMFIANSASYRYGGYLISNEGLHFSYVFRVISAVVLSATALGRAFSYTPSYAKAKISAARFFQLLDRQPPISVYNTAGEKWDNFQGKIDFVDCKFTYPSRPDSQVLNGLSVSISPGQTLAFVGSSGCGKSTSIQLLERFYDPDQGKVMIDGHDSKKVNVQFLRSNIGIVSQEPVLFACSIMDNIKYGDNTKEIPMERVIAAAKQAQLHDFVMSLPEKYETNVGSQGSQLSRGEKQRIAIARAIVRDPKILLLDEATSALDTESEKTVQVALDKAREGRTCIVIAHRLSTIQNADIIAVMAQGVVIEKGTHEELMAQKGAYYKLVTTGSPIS

Broadly, the IC50 is the concentration that inhibits the measured activity by half. As for `C[C@]12CC[C@@H]3c4ccc(O)cc4C[C@@H](CCCCCCCCC[S+]([O-])CCCC(F)(F)C(F)(F)F)[C@H]3[C@@H]1CC[C@@H]2O` (stereo partly specified) [FULVESTRANT], the IC50 (in assay [1]; in assay [2]; at Bile salt export pump; in assay [3]) was > 133 µM each time.
As for `CSc1ccc(C(=O)c2[nH]c(=O)[nH]c2C)cc1` [ENOXIMONE], the IC50 (in assay [1]; in assay [2]; at Bile salt export pump; in assay [3]) was > 133 µM each time.
For `O=NN(CCCl)C(=O)NC1CCCCC1` [LOMUSTINE], the IC50 (in assay [1]; in assay [2]; on Bile salt export pump; in assay [3]) was > 133 µM throughout.
For `CC(C)C(=O)Oc1ccc(CO)cc1[C@H](CCN(C(C)C)C(C)C)c1ccccc1` [FESOTERODINE FUMARATE], the IC50 (in assay [1]; in assay [2]; on Bile salt export pump; in assay [3]) was > 133 µM throughout.
With `CNS(=O)(=O)Cc1ccc2[nH]cc(CCN(C)C)c2c1`, the IC50 (in assay [1]; in assay [2]; at Bile salt export pump; in assay [3]) was > 133 µM in each case.
For `COc1ccc2c3c1O[C@H]1C[C@@H](O)C=C[C@@]31CCN(C)C2` [GALANTAMINE], the IC50 (in assay [1]; in assay [2]; on Bile salt export pump; in assay [3]) was > 133 µM throughout.
For `CC1COc2c(N3CCN(C)CC3)c(F)cc3c(=O)c(C(=O)O)cn1c23` (stereo unspecified) [OFLOXACIN], the IC50 (in assay [1]; in assay [2]; on Bile salt export pump; in assay [3]) was > 133 µM in each case.
On to `COc1ccc2[nH]cc(CCNC(C)=O)c2c1` [MELATONIN], for which the IC50 (in assay [1]; in assay [2]; on Bile salt export pump; in assay [3]) was > 133 µM throughout.
For the compound `CCOC(=O)c1ncn2c1CN(C)C(=O)c1cc(F)ccc1-2` [FLUMAZENIL], the IC50 (in assay [1]; in assay [2]; on Bile salt export pump; in assay [3]) was > 133 µM in each case.
Turning to `COc1ccc(Cl)cc1[C@]1(F)C(=O)Nc2cc(C(F)(F)F)ccc21` [FLINDOKALNER], the IC50 (in assay [1]; in assay [2]; on Bile salt export pump; in assay [3]) was > 133 µM in each case.
`C[C@]12C/C(=C/O)C(=O)C[C@@H]1CC[C@@H]1[C@@H]2CC[C@@]2(C)[C@H]1CC[C@]2(C)O` [OXYMETHOLONE]: the IC50 in assay [1] was > 133 µM; in assay [2], > 133 µM; at Bile salt export pump, 48.7 µM; in assay [3] it was > 133 µM.
With `CO/N=C(\C(=O)N[C@@H]1C(=O)N2C(C(=O)O)=C(CSc3nc(=O)c(=O)[nH]n3C)CS[C@H]12)c1csc(N)n1`, the IC50 in assay [1] is 35.6 µM; in assay [2] it was > 133 µM; on Bile salt export pump it was > 133 µM; in assay [3], > 133 µM.
For `Nc1nc2c(c(=O)[nH]1)N(C=O)C(CNc1ccc(C(=O)N[C@@H](CCC(=O)O)C(=O)O)cc1)CN2` (stereo partly specified) [LEUCOVORIN CALCIUM], the IC50 (in assay [1]; in assay [2]; on Bile salt export pump; in assay [3]) was > 133 µM throughout.
As to `C[C@@H]1CC[C@H]2[C@@H](C)C(=O)O[C@@H]3O[C@@]4(C)CC[C@@H]1[C@]32OO4` [ARTEMISININ], the IC50 (in assay [1]; in assay [2]; on Bile salt export pump; in assay [3]) was > 133 µM in each case.
With `CC1(C)S[C@@H]2[C@H](NC(=O)[C@H](N)c3ccc(O)cc3)C(=O)N2[C@H]1C(=O)O` [AMOXICILLIN], the IC50 (in assay [1]; in assay [2]; at Bile salt export pump; in assay [3]) was > 133 µM each time.
`Nc1c2c(nc3ccccc13)CCCC2` [TACRINE]: the IC50 was 23.7 µM in assay [1], > 133 µM in assay [2], > 133 µM on Bile salt export pump and > 133 µM in assay [3].
With `CC(SC(=O)c1cccs1)C(=O)NCC(=O)O` (stereo unspecified) [STEPRONIN], the IC50 (in assay [1]; in assay [2]; on Bile salt export pump; in assay [3]) was > 133 µM throughout.
In the case of `O=[N+]([O-])C(Br)(CO)CO` [BRONOPOL], the IC50 (in assay [1]; in assay [2]; at Bile salt export pump; in assay [3]) was > 133 µM each time.
With `CN1CCOC(c2ccccc2)c2ccccc2C1` (stereo unspecified) [NEFOPAM], the IC50 (in assay [1]; in assay [2]; on Bile salt export pump; in assay [3]) was > 133 µM each time.
On to `CC(=O)CC(c1ccccc1)c1c(O)c2ccccc2oc1=O` (stereo unspecified) [WARFARIN SODIUM], for which the half-maximal inhibitory concentration (IC50) (in assay [1]; in assay [2]; on Bile salt export pump; in assay [3]) was > 133 µM in each case.
In the case of `Clc1ccc2c(c1)C(N1CCNCC1)=Nc1ccccc1O2` [AMOXAPINE], the IC50 (in assay [1]; in assay [2]; on Bile salt export pump; in assay [3]) was > 133 µM throughout.
For `NC[C@H]1O[C@H](O[C@H]2[C@H](O)[C@@H](O[C@H]3O[C@H](CO)[C@@H](O)[C@H](N)[C@H]3O)[C@H](N)C[C@@H]2N)[C@H](N)C[C@@H]1O` [TOBRAMYCIN], the IC50 (in assay [1]; in assay [2]; on Bile salt export pump; in assay [3]) was > 133 µM throughout.
`CC(=O)Oc1ccccc1C(=O)Nc1ncc([N+](=O)[O-])s1` [NITAZOXANIDE]: the IC50 (in assay [1]; in assay [2]; on Bile salt export pump; in assay [3]) was > 133 µM throughout.
For `CN1CCN(c2c(F)cc3c(=O)c(C(=O)O)cn(CCF)c3c2F)CC1` [FLEROXACIN], the IC50 (in assay [1]; in assay [2]; on Bile salt export pump; in assay [3]) was > 133 µM throughout.
In the case of `CC1(C)O[C@@H]2C[C@H]3[C@@H]4CCC5=CC(=O)C=C[C@]5(C)[C@@]4(F)[C@@H](O)C[C@]3(C)[C@]2(C(=O)CO)O1` [TRIAMCINOLONE ACETONIDE], the IC50 (in assay [1]; in assay [2]; on Bile salt export pump; in assay [3]) was > 133 µM each time.
In the case of `CN1C(=O)CC(=O)N(c2ccccc2)c2cc(Cl)ccc21` [CLOBAZAM], the IC50 (in assay [1]; in assay [2]; at Bile salt export pump; in assay [3]) was > 133 µM throughout.
In the case of `NCCCC[C@H](NC(=O)[C@@H]1CCCN1C(=O)[C@@H]1CSSC[C@H](NC(=O)CNC(=O)CNC(=O)CN)C(=O)N[C@@H](Cc2ccc(O)cc2)C(=O)N[C@@H](Cc2ccccc2)C(=O)N[C@@H](CCC(N)=O)C(=O)N[C@@H](CC(N)=O)C(=O)N1)C(=O)NCC(N)=O` (H-GGGCYFQNCPKG-NH2; disulfide 4-9), the IC50 (in assay [1]; in assay [2]; at Bile salt export pump; in assay [3]) was > 133 µM in each case.
On to `N[C@@H](C(=O)N[C@@H]1C(=O)N2C(C(=O)O)=C(Cl)CS[C@H]12)c1ccccc1` [CEFACLOR ANHYDROUS], for which the IC50 (in assay [1]; in assay [2]; on Bile salt export pump; in assay [3]) was > 133 µM throughout.
Take `O=P1(NCCCl)OCCCN1CCCl` (stereo unspecified) [IFOSFAMIDE]: the 50% inhibitory concentration (IC50) (in assay [1]; in assay [2]; on Bile salt export pump; in assay [3]) was > 133 µM throughout.
